Results from US20060242739A1, “Plant nucleotide-sugar pyrophosphatase/phosphodiesterase (nppase), method of obtaining same and use of same in the production of assay devices and in the production of transgenic plants” (Universidad Publica De Navarra, priority 2002, published 2006).

How the values were obtained:
[1] = target: T1, NPPase from barley leaves (Hordeum vulgare, UniProt Q687E1); assay: Enzymatic test of soluble NPPase from barley leaves: kinetic parameters, substrate specificity, effectors; conditions: for effect on NPPase activity (inhibition) / hydrolysis by NPPase (substrate recognition): qualitative; for Vmax: Vmax in % in relation to ADPG, NPPase from barley leaves; for Km: substrate of NPPase from barley leaves
T1 sequence (Q687E1 19-368): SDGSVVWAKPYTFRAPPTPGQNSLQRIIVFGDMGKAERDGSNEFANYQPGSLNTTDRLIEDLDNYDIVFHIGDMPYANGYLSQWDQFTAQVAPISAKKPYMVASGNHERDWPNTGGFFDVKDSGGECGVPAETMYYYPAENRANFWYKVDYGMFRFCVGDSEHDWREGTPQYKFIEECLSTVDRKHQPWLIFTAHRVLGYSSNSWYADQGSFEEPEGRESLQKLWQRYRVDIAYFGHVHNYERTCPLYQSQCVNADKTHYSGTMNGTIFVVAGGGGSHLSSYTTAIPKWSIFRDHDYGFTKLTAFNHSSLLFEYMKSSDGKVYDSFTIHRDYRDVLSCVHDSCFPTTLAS

NPPase from rice leaves = NPPase from rice leaves (Oryza sativa, UniProt Q0X0G2); assay: Kinetic parameters and substrate specificity of the NPPase from rice leaves; conditions: substrate of NPPase from rice leaves
Sequence of NPPase from rice leaves (Q0X0G2 26-623 limits assumed): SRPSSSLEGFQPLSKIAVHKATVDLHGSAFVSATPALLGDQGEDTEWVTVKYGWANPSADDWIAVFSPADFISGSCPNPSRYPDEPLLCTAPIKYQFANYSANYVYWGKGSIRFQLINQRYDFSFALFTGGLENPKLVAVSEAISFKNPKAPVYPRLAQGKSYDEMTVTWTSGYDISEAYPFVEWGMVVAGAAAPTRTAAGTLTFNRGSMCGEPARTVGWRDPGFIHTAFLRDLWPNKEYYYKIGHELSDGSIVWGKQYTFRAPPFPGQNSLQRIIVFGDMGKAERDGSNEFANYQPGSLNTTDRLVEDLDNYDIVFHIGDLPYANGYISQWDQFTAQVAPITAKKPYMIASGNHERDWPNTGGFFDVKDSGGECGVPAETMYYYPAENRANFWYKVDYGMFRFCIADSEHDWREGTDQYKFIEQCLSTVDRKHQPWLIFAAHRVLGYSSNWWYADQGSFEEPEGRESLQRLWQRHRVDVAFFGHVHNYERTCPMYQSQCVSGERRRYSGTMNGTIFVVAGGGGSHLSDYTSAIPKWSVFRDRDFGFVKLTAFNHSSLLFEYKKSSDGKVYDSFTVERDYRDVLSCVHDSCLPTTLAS

Compound	effect on NPPase activity (inhibition) [1]	Vmax [1]	hydrolysis by NPPase (substrate recognition) [1]	other results
OCCS [β-mercaptoethanol]	not affected			
arsenate	strongly inhibited			
NC(=O)c1ccc[n+]([C@@H]2O[C@H](COP(=O)(O)OP(=O)(O)OC[C@H]3O[C@@H](n4cnc5c(N)ncnc54)[C@H](O)[C@@H]3O)[C@@H](O)[C@H]2O)c1 [NAD^+]		100%		
O=[N+]([O-])c1ccc(OP(=O)(O)O)cc1 [PNPP]		100%		
Nc1ncnc2c1ncn2[C@@H]1O[C@H](COP(=O)(O)OP(=O)(O)O[C@H]2O[C@H](CO)[C@@H](O)[C@H](O)[C@@H]2O)[C@@H](O)[C@H]1O [ADPmannose, ADP-mannose]		30%		
Nc1ncnc2c1ncn2[C@@H]1O[C@H](COP(=O)(O)OP(=O)(O)O)[C@@H](O)[C@H]1O [ADP]	inhibited	40%		
Nc1ncnc2c1ncn2[C@@H]1O[C@H](COP(=O)(O)OS(=O)(=O)O)[C@@H](O)[C@H]1O [APS, adenosine 5′-phosphosulphate]				Vmax (NPPase from rice leaves): 282 μmol min^−1 (mg protein)^−1
[O]=[Mo](=[O])([O-])[O-] [molybdate]	strongly inhibited			
O=C[C@H](O)[C@@H](O)[C@H](O)[C@H](O)COP(=O)(O)O [G6P, glucose-6-phosphate]			does not hydrolyse	
Nc1ncnc2c1ncn2[C@@H]1O[C@H](COP(=O)(O)O)[C@@H](O)[C@H]1O [AMP]	inhibited		does not hydrolyse	
O=C(O)[C@H](O)COP(=O)(O)O [3-phosphoglycerate]	inhibited		does not hydrolyse	
O=P(O)(O)OP(=O)(O)O [PPi, inorganic pyrophosphate]				Vmax (NPPase from rice leaves): 176 μmol min^−1 (mg protein)^−1
Nc1ncnc2c1ncn2[C@@H]1O[C@H](COP(=O)(O)O)[C@@H](O)[C@H]1O [PAP, adenosine-5′-phosphate]		n.q.		Km [1]: n.q.
O=[N+]([O-])c1ccc(OP(=O)(O)Oc2ccc([N+](=O)[O-])cc2)cc1 [bis-PNPP, bis-paranitrophenylphosphate]		100%	hydrolyses	
Nc1ncnc2c1ncn2[C@@H]1O[C@H](COP(=O)(O)OP(=O)(O)O[C@H]2O[C@H](CO)[C@@H](O)[C@H](O)[C@H]2O)[C@@H](O)[C@H]1O [ADPG, ADPglucose]		100%	catalyses the hydrolysis	
Nc1nc2c(ncn2[C@@H]2O[C@H](COP(=O)(O)OP(=O)(O)O[C@H]3O[C@H](CO)[C@@H](O)[C@H](O)[C@H]3O)[C@@H](O)[C@H]2O)c(=O)[nH]1 [GDP-glucose]			recognizes	
ADP-ribose [ADPribose]		100%		
NC(=O)c1ccc[n+]([C@@H]2O[C@H](COP(=O)([O-])OP(=O)(O)OC[C@H]3O[C@@H](n4cnc5c(N)ncnc54)[C@H](OP(=O)(O)O)[C@@H]3O)[C@@H](O)[C@H]2O)c1 [NADP^+]		n.q.		Km [1]: n.q.
Nc1nc2c(ncn2[C@@H]2O[C@H](COP(=O)(O)OP(=O)(O)O[C@H]3O[C@H](CO)[C@@H](O)[C@H](O)[C@@H]3O)[C@@H](O)[C@H]2O)c(=O)[nH]1 [GDPmannose, GDP-mannose]		30%		
Nc1ccn([C@@H]2O[C@H](COP(=O)(O)OP(=O)(O)O[C@H]3O[C@H](CO)[C@@H](O)[C@H](O)[C@H]3O)[C@@H](O)[C@H]2O)c(=O)n1 [CDPG, CDP-glucose]		114%		
